Source: US10385034B2, “Flavonoid IL-17A inhibitors” (THE CLEVELAND CLINIC FOUNDATION, priority 2014, dated 2019)
pIC50: −log10 of the molar value. Entries after “also recorded” stand apart in the source; their conditions may differ. Where two headings read alike, the source gives them in different places. Blank lines part the entries; values can stand above or below the compound they belong to.

Tests used:
IL-17A-IL-17RA binding = molecular target: T1, IL-17A-IL-17RA binding (Homo sapiens, UniProt Q96F46); assay: IL-17A-IL-17RA binding assay (ELISA); conditions: for pIC50: in vitro inhibition assay; for Inhibition of IL-17A-IL-17RA binding: serial dilutions of compound
T1 construct: human IL-17RA-Fc (extracellular domain 1-322 AA fused with Fc region of human IgG1 at the C-terminus); purchased Sino Biological Inc
T1 sequence (Q96F46 33-322): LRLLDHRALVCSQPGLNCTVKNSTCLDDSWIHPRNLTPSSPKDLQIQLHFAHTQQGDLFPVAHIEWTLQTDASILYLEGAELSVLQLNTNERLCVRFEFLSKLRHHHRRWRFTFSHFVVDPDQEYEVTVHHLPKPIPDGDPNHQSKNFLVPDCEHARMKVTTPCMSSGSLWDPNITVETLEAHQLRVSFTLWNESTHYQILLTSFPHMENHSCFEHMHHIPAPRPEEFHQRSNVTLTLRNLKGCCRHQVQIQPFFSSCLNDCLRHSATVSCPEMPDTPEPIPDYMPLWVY
Method: IL-17A-IL-17RA binding assay. ELISA plates were coated with human IL-17A or IL-17E (2 μg/ml in PBS). Human IL-17RA-Fc or human IL-17RB-Fc (150 ng/ml) were added and incubated for 1 h, followed by incubation with human HRP-conjugated anti human IgG Fc secondary antibody for 1 h. ELISA were finally developed using tetramethylbenzidine substrate.

[1] = molecular target: T2, recombinant human IL-17RA ectodomain (Homo sapiens, UniProt Q96F46); assay: Fluorescence binding measurement (fluorescence quenching); conditions: one-site total binding fit
T2 construct: The recombinant human IL-17RA ectodomain was expressed in baculovirus-infected Sf-9 cells; made in house; host or cells: baculovirus-infected Sf-9 cells
T2 sequence (Q96F46 33-320 limits assumed): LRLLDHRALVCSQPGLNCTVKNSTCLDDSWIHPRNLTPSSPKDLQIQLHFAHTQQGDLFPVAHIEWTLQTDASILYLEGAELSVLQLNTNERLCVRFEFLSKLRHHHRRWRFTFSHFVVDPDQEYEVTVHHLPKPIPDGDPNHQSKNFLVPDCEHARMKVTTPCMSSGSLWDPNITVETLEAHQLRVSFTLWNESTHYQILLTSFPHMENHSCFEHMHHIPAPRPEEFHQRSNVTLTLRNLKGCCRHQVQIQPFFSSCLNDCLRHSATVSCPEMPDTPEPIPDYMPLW
Method: Fluorescence binding measurement. The recombinant human IL-17RA ectodomain was expressed in baculovirus-infected Sf-9 cells and purified as described previously. Liu et al., Nat Commun 4, 1888 (2013). The compound A18 or A0 was obtained from NCI. The purified IL-17RA protein (final concentration at 1 uM) was mixed with various concentrations of compound A0 in the solution consisting of 20 mM Tris, pH 7.5, 150 mM NaCl, and 5% DMSO in a 96-well black flat-bottom microplate (Greiner Bio-One). The reaction mixtures were incubated at room temperature at 120 rpm for 10 min, and fluorescence intensity was measured on a 2300 EnSpire Multimode Plate Reader (PerkinElmer) with excitation (265 nm) and emission (336 nm) wavelengths for A18 or with excitation (240 nm) and emission (337 nm) wavelengths for A0. The fluorescence signal (relative fluorescence intensity) was obtained by subtracting the background fluorescence of buffer and compound A0, and plotted as a function of the concentration of compound A0. The fluorescence quenching was observed as a consequence of the protein-ligand interaction at dose-dependent concentrations of compound A0, and the binding constant of compound A0 to IL-17RA was estimated by one-site total binding fit model (GraphPad Prism).

[2] = tested on: human mammary epithelial cells (HMEC); assay: IL-17A-induced CXCL1 (Groα) production, ELISA; format: cell-based; conditions: IL-17 100 ng/ml, 24 h
Excerpt: (§1) Reagents, cell culture and mice. Purified proteins of human IL-17A, human IL-17E (IL-25), human IL-17RA-Fc (extracellular domain 1-322 AA fused with Fc region of human IgG1 at the C-terminus), human IL-17RB-Fc (extracellular domain 1-289 AA fused with Fc region of human IgG1 at the C-terminus), human horseradish peroxidase (HRP)-conjugated IgG Fc secondary antibody were purchased from Sino Biological Inc. Human and mouse IL-17A and mouse IL-23 used for cell culture and animal injection were purchased from R&D Systems. Human mammary epithelial cells were maintained in Medium 171 plus mammary epithelial growth supplement (MEGS) purchased from Invitrogen, which contain bovine pituitary extract (BPE) (0.4% v/v), recombinant human insulin-like growth factor-I (1 μg/ml), hydrocortisone (0.5 μg/ml) and human epidermal growth factor (3 ng/ml). A549 cells were maintained in RPMI supplemented with 10% FCS and 100 U/ml penicillin and 100 μg/ml streptomycin. All mice were obtained from Jackson laboratory.
(§2) ELISA. Groα and IL-17A levels were assayed by ELISA kits (R&D systems) according to the manufacturer's instruction.

A549 cells = assay: IL-17A-induced CXCL1 (Groα) production, ELISA; format: cell-based, human; conditions: A549, IL-17 100 ng/ml, 24 h
Excerpt: as §1, §2

[3] = tested on: IL-17F-induced gene expression; assay: IL-17F-induced gene expression in epithelial cells; format: cell-based, human; conditions: data not shown
psoriasis = conditions: patients; cited from earlier work
multiple sclerosis = conditions: 6-month, placebo-controlled trial, 73 patients; cited from earlier work
[4] = read-out: IC50, IL-17A-IL-17RA binding inhibition assay
[5] = read-out: IC50, IL-17A-IL-17RA binding assay

pIC50 (IL-17A-IL-17RA binding; [4]): 6.02
Binding constant to IL-17RA [1]: in the same range as A18
Compound: Oc1cc(O)c2c(c1)O[C@@H](c1ccc(O)c(O)c1)[C@H](O)C2 [A0, (2S,3R)-2-(3,4-dihydroxyphenyl)-3,4-dihydro-2H-chromene-3,5,7-triol]
Inhibition of IL-17A-IL-17RA binding (IL-17A-IL-17RA binding): excellent inhibition efficacy; also recorded: great inhibition efficacy
IL-17A-mediated CXCL1 production [2]: greatly inhibited
IL-17A-mediated CXCL1 production (A549 cells): greatly inhibited
IL-17F-induced gene expression [3]: able to block

pIC50 (IL-17A-IL-17RA binding; [5]): < 4.52
Compound: Oc1ccc2cc(O)c(-c3ccc(O)c(O)c3)[o+]c2c1 [A18Δ5OH]

pIC50 (IL-17A-IL-17RA binding; [4]): 7.02
Compound: OC[C@H]1O[C@@H](Oc2cc3c(O)cc(O)cc3[o+]c2-c2ccc(O)c(O)c2)[C@H](O)[C@@H](O)[C@@H]1O [cyanidin-3-O-glucoside, reference compound]

pIC50 (IL-17A-IL-17RA binding; [4]): 6.70
Compound: Oc1cc(O)c2ccc(-c3ccc(O)c(O)c3)[o+]c2c1 [luteolinidin, reference compound]

pIC50 (IL-17A-IL-17RA binding; [5]): < 4.00
Compound: Oc1ccc(-c2[o+]c3cc(O)cc(O)c3cc2O)cc1 [pelargonidin, reference compound]

Compound: O=C(O)c1ccc(O)c(O)c1 [photocatechuic acid, reference compound]
Inhibition of IL-17A-IL-17RA binding (IL-17A-IL-17RA binding): greatly reduced inhibitory activity

Compound: secukinumab: Anti-IL17A antibody (Cosentyx/secukinumab from Novartis)
Efficacy for psoriasis (psoriasis): extreme efficacy
Responding rate in psoriasis (psoriasis): greater than 85%
MS-type brain lesions (multiple sclerosis): significantly lowered
Relapse rates (multiple sclerosis): trend toward reduced
